Measured values from patent EP2924040A1, “2-Amino-1-(o-tolyl)pyrrolo[3,2-b]quinoxaline-3-carboxamide derivates” (Universität Zürich, priority 2014, dated 2015).

Columns and labels:
EphA3 = target: T1, EphA3 (Homo sapiens, UniProt P29320); experiment: Surface Plasmon Resonance (SPR) determination of binding and unbinding kinetics; conditions: immobilized EphA3, 25 °C
T1 sequence (P29320 21-983): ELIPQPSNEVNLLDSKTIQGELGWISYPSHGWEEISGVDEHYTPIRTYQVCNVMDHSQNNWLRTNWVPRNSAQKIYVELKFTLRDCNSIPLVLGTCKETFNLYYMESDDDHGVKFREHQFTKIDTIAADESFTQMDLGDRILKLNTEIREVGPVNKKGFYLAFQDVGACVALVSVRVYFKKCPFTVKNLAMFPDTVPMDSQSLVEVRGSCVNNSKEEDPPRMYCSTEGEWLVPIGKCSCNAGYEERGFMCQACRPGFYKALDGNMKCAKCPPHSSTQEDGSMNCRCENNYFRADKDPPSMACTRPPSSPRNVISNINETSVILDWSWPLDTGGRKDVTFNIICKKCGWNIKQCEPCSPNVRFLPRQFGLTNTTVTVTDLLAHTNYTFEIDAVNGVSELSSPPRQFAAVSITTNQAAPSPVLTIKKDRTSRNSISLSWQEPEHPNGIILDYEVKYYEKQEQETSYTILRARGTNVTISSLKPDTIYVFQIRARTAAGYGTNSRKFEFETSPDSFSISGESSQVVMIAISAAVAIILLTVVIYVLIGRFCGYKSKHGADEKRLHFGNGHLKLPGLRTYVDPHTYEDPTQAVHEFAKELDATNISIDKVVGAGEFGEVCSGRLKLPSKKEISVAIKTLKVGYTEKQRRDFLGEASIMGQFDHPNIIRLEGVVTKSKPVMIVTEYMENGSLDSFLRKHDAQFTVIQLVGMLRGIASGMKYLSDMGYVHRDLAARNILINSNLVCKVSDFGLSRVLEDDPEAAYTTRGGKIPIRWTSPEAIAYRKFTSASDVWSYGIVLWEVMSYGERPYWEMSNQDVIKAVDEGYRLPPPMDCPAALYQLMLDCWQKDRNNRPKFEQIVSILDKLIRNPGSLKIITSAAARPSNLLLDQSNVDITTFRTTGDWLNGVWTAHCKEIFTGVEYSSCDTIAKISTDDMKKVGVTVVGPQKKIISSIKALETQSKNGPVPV
Description: The affinity of compound 2 towards EphA3 was determined using Surface Plasmon Resonance measurements on a ProteOn XPR36 (Bio-Rad Laboratories, AG). EphA3 was immobilized on a GLH chip (Bio-Rad Laboratories AG) by standard amine coupling procedures achieving a RU of 4000-6000 and equilibrated with steriled-filtered buffer (10mM HEPES, 150mM NaCl, 3mM EDTA, 0.005% Tween 20 pH 8.0) with a flow rate of 60µL/min. Association of compound 2 was performed at 25 °C using serial dilutions of the inhibitors in duplicates for 400s, whereas dissociation of the inhibitors from the chip was monitored for 36,000 seconds. Data were normalized using interspot referencing and subtraction of a separate analyte channel run with buffer and BSA. All sensograms were fitted using a 1:1 Langmuir model provided by the ProteOn Manager Software (Bio-Rad Laboratories AG), and the association (kon) and dissociation ([…]) rate constants were used to determine the equilibrium dissociation constants (KD).

[1] = tested on: MDA-MB-231 breast cancer cells; experiment: Efficacy in a Xenograft Mouse Model; format: in vivo; conditions: female NCr Nu/Nu mice, subcutaneous MDA-MB-231, 50 mg/kg oral twice daily, 21 days
Description: The effect of compound 2 on MDA-MB-231 breast cancer cells was examined. The breast cancer cells were implanted subcutaneously in xenograft mouse models and the development of the body weight and the tumor volume were observed over time (21 days). Group 1 is the vehicle control group consisting of 9 animals, whereas group 2 consisted of 9 animals receiving 50 mg/kg of compound 2 twice-daily.
9 week old female NCr Nu/Nu mice (Charles River Laboratories, Inc.) were injected at the flank with 5x10^6 MDA-MB-231 cells. Once tumor volume reached 108-126 mm^3 (as measured by digital caliper) mice were randomized into a treatment and vehicle-control group of 9 animals each. The treatment group received oral doses of 50 mg/kg of compound 2 twice daily for 21 days (with the exception of a single dose on the first day), formulated as a homogeneous suspension in DMSO/1% methylcellulose (5/95, v/v). The control group received the same formulation but excluding compound 2. Tumor volume of all mice was evaluated bi-weekly up to day 19.

protein kinases = experiment: Selectivity profile with respect to protein kinases; format: binding; conditions: kinase groups TK, TKL, STE, CK1, AGC, CAMK, CMGC, other (Fig. 1)
Text: A selectivity profile of compound 2 with respect to protein kinases is depicted in Figure 1. The protein kinases are selected from tyrosine kinases (TK), tyrosine kinase-like kinases (TKL), STE-Group, Cell Kinases 1 (CK1), AGC-Group, Calmodulin/Calcium regulated kinases (CAMK), CMGC Group and other kinases. The larger the respective dot, the higher the binding affinity of the compound to the respective protein kinases. […] As per Kawasaki Y. and Freire E. in Drug Discovery Today, 2011 November; 16(21-22): 985-990, "[e]xtremely high affinity and selectivity are two of the most sought-after properties of drug molecules."

With `Cc1ccc(O)cc1-n1c(N)c(C(N)=O)c2nc3ccccc3nc21` [Compound 2, 2-Amino-1-(5-hydroxy-2-methylphenyl)-1H-pyrrolo[2,3-b]quinoxaline-3-carboxamide] the Kd (EphA3; 1:1 Langmuir model, read-out: dissociation constant (KD)) was 6 nM, the residence time (EphA3; reciprocal value of koff, read-out: τoff (residence time) (converted)) was 11 min and the group-median tumor volume [1] was “remarkable group-median tumor volume control”. The “selectivity profile (binding affinity) with respect to protein kinases” value (protein kinases) was “selectivity towards tyrosine kinases (TK)”.
